One may read the inhibition as the relative decrease from the control value, in per cent. What is called Ki is a measure of affinity in units of concentration, obtained from inhibition or displacement.

Counter-ions that a name gives are not always drawn.

The first experiment has as its target T1, mouse 5-HT3 receptor (Mus musculus, UniProt P23979).
T1 construct: host or cells: mouse neuroblastoma cells (N1E-155 as printed)
T1 sequence (P23979 24-489): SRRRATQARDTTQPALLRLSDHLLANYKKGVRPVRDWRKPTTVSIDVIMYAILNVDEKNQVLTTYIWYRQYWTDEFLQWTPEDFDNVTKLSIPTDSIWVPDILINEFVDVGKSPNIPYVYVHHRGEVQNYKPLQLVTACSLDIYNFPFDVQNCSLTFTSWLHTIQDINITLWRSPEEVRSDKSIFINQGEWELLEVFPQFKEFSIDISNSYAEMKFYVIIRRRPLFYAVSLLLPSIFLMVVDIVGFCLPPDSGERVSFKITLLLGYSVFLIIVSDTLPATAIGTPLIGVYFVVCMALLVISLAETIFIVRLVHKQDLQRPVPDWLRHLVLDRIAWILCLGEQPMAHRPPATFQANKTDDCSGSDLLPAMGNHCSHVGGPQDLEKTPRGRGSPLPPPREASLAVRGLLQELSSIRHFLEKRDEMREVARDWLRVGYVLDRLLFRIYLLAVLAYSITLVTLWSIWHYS
As to the kind of experiment: Compound affinity for the mouse 5-HT3 receptor (Assay C), [3H]-GR65630 radioligand binding, Novoscreen. Particulars: Assay C; single concentration 100 nM, in duplicate; [3H]-GR65630; read-out: Mouse % Inhibition @ 100 nM. The method, then: Compound Affinity for the Mouse 5-HT3Receptor (Assay C)
Compounds were tested by Novoscreen Biosciences Corporation, 7170 Standard Drive, Hanover, Md. in a radioligand binding assay using the mouse 5-HT3 receptor derived from mouse neuroblastoma cells and [^3H]-GR65630 (ligand). The non-specific binding determinant was MDL 72222. Compounds were tested at a single concentration of 100 nM in duplicate. Percent inhibition is reported. In order to evaluate the relative affinity of the various compounds for the 5-HT3 receptor, N1E-155 cell lines were developed to express the target protein. For binding, these cells were homogenized, centrifuged and washed with buffer (20 mM HEPES, 150 mM NaCl, pH 7.4) then suspended in 0.5 mL of buffer and [^3H]-GR65630 added at a concentration of 3.5×10^−10 M. An initial single concentration of 10^−7 M of the test compound was then added. Incubation was carried out at room temperature for 60 minutes at 25° C. then was terminated by rapid removal of the incubation medium. Radioactivity was assessed using liquid scintillation spectrophotometry after exposure to scintillation cocktail for at least three hours. […] Ki values were then calculated from the Cheng-Prusoff equation. In all of the above binding studies the non-specific determinant was MDL-72222 (1.0 μM).
(§1) In the table below, the assay in which the data were obtained is shown (as A, B. C, or D) along with the data.
Regarding `O=C(N[C@@H]1CN2CCC1CC2)c1cccc2oc(C3CCCC3)nc12` [Example 6, (S)—N-(1-Azabicyclo[2.2.2]oct-3-yl)-2-cyclopentylbenzoxazole-4-carboxamide Hydrochloride], the inhibition at 0.1 µM came to 90.2%.
On the same count and under the same terms, under `CN1C2CCCC1CC(NC(=O)c1cccc3oc(C4CCCCC4)nc13)C2` (stereo not drawn) [Example 15, Endo-N-(9-Methyl-9-azabicyclo[3.3.1]non-3-yl)-2-cyclohexylbenzoxazole-4-carboxamide Hydrochloride] stands 105%.
Still for that read-out and setting: under `O=C(N[C@@H]1CN2CCC1CC2)c1cccc2oc(C3CCCCC3)nc12` [Example 16, (S)—N-(1-Azabicyclo[2.2.2]oct-3-yl)-2-cyclohexylbenzoxazole-4-carboxamide Hydrochloride] stands 94.1%; under `CCN1C2CCCC1CC(NC(=O)c1cccc3oc(C4CC4)nc13)C2` (centres unmarked) [Example 21, N-(9-Ethyl-9-azabicyclo[3.3.1]non-3-yl)-2-cyclopropylbenzoxazole-4-carboxamide Hydrochloride], 34.9%.

The same experiment, now with this note: read-out: Mouse % Inhibition @ 100 nM.
On to `CC1CC1c1nc2c(C(=O)NC3CN4CCC3CC4)cccc2o1` (racemic) [Example 14, (S)—N-(1-Azabicyclo[2.2.2]oct-3-yl)-2-(2-methylcyclopropyl)benzoxazole-4-carboxamide Hydrochloride], for which the inhibition at 0.1 µM came to 93.6%.

The next experiment concerns the target T2, human 5-HT3 receptor (Homo sapiens, UniProt P46098).
T2 sequence (P46098 24-478): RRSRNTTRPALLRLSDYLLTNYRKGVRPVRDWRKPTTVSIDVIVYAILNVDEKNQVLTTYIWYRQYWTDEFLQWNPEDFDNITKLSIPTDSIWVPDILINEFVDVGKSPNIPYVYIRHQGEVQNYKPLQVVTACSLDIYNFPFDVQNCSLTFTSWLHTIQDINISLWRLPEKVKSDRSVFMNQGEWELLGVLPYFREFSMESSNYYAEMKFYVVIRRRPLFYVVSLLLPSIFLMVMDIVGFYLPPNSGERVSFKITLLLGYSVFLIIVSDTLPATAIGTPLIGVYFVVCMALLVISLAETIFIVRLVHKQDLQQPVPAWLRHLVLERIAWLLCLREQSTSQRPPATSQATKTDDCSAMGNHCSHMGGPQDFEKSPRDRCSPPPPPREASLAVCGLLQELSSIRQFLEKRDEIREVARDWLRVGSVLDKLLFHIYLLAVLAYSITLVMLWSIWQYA
The experiment can be described thus: Compound affinity for the human 5-HT3 receptor (Assay B), SPA radioligand binding with [9-methyl-3H]BRL-43694. More on the design: purchased Perkin Elmer.
Details: not given
The procedure:
Compound Affinity for the Human 5-HT3 Receptor (Assay B)
The relative affinity of the various compounds for the human 5-HT3 receptor was measured in a radioligand binding assay, using a scintillation proximity assay (SPA) format. Test compounds were dissolved to 10 mM in 100% DMSO, then serially diluted at 10× assay concentrations in 100% DMSO in 96-well polypropylene plates and further diluted to 4× assay concentrations with the assay buffer. Samples were incubated in 50 mM Tris-HCl, pH 7.5, 3 mM MgCl2, 1 mM EDTA and 10% DMSO with 10 nM [9-methyl-3H]BRL-43694 (Perkin Elmer), 3 μg of human 5-HT3 receptor membranes (Perkin Elmer) and 0.5 mg/mL SPA beads (WGA PVT, Amersham Biosciences) in a final volume of 0.2 mL. Binding reactions were set up in wells of PicoPlates-96 (Perkin Elmer) by adding consecutively 50 μL of each competing compound or buffer, SPA beads, the radioligand and 5-HT3 receptor membranes. After 60-min incubation at room temperature on a Nutator mixer, plates were centrifuged for 15 min at 1,500 rpm, followed by incubation in the dark for 30 min. Radioactivity was counted in the TopCount microplate counter (Perkin Elmer) for 5 min. Total binding control contained buffer only; nonspecific binding was determined in the presence of 30 μM MDL-72222. Specific binding was determined by subtracting nonspecific binding from total binding. All experiments were performed in duplicate using ten concentrations of a competing ligand, with ondansetron included as a control in every run. IC50 values were determined from specific binding data using XLfit4.1 curve fitting software from IDBS Ltd. Ki values were then calculated from the Cheng-Prusoff equation.
as §1
Consider `O=C(NC1CC2CCCC(C1)N2)c1cccc2oc(C3CC3)nc12` (centres unmarked) [Example 36, N-(9-Azabicyclo[3.3.1]non-3-yl)-2-cyclopropylbenzoxazole-4-carboxamide Hydrochloride], for which the affinity, expressed as Ki, was 6.3 nM.
The same measure, in the same setting: under `CN1CCC(c2nc3c(C(=O)N[C@H]4C[C@H]5CCC[C@@H](C4)N5C)cccc3o2)CC1` [Example 29, Endo-N-(9-methyl-9-azabicyclo[3.3.1]non-3-yl)-2-(1-methylpiperidin-4-yl)benzoxazole-4-carboxamide Dihydrochloride] stands 28 nM.
On the same count and under the same terms, under `C[C@H]1OC(=O)N(C)C1c1nc2c(C(=O)NC3CC4CCCC(C3)N4C)cccc2o1` (stereo partly drawn) [Example 42, Endo-N-(9-methyl-9-azabicyclo[3.3.1]nonan-3-yl)-2-((4S,5R/4R,5S)-3,5-dimethyl-2-oxo-oxazolidin-4-yl)benzoxazole-4-carboxamide] stands 24.9 nM; under `CN1CCCCC1c1nc2c(C(=O)N[C@H]3C[C@H]4CCC[C@@H](C3)N4C)cccc2o1` (mixture of isomers) [Example 33, Endo-N-(9-Methyl-9-azabicyclo[3.3.1]nonan-3-yl)-2-(1-methylpiperidin-2-yl)benzoxazole-4-carboxamide Hydrochloride], 21.6 nM.
Still for that read-out and setting: under `CN1[C@@H]2CCC[C@H]1C[C@@H](NC(=O)c1cccc3oc(CN4CCOCC4)nc13)C2` [Example 39, Endo-N-(9-Methyl-9-azabicyclo[3.3.1]nonan-3-yl)-2-(morpholinomethyl)benzoxazole-4-carboxamide Hydrochloride] stands 77.1 nM.

The experiment is the same for the next values; noted with them: Assay B; SPA, [9-methyl-3H]BRL-43694; Cheng-Prusoff; read-out: Human 5HT3 Ki.
For `CN1[C@@H]2CCC[C@H]1C[C@@H](NC(=O)c1cccc3oc(C45CCN(CC4)CC5)nc13)C2` [Example 26, Endo-N-(9-Methyl-9-azabicyclo[3.3.1]nonan-3-yl)-2-(quinuclidin-4-yl)benzoxazole-4-carboxamide Dihydrochloride], the Ki was found to be 173 nM.
The same measure, in the same setting: to `O=C(N[C@@H]1CN2CCC1CC2)c1cccc2oc(C3CCOCC3)nc12` [Example 25, (S)—N-(1-Azabicyclo[2.2.2]oct-3-yl)-2-(tetrahydro-2H-pyran-4-yl)benzoxazole-4-carboxamide Hydrochloride] belongs 126 nM.
Turning to `CCN(CC)Cc1nc2c(C(=O)NC3CN4CCC3CC4)cccc2o1` [Example 40, (S)—N-(Azabicylco[2.2.2]oct-3-yl)-2-(diethylaminomethyl)benzoxazole-4-carboxamide Hydrochloride], the inhibition constant (Ki) came out at 129 nM.
The same measure, in the same setting: to `CC(=O)N1CCC(c2nc3c(C(=O)N[C@@H]4CN5CCC4CC5)cccc3o2)CC1` [Example 31, (S)—N-(1-Azabicyclo[2.2.2]oct-3-yl)-2-(1-acetylpiperidin-4-yl)benzoxazole-4-carboxamide Hydrochloride] belongs 356 nM.

The values above are taken from US8278301B2, “2-alkylbenzoxazole carboxamides as 5HT3 modulators” (Albany Molecular Research, Inc., priority 2006, dated 2012).
